Measured values as given in article PMC7451656, “In vitro and in vivo growth inhibitory activities of cryptolepine hydrate against several Babesia species and Theileria equi” (PLoS Neglected Tropical Diseases, 2020).
Where two headings read alike, the source gives them in different places.

Legend:
B. divergens = experiment: Growth inhibitory fluorescence assay in vitro, B. divergens; format: cell-based, Babesia divergens; settings: for IC50: Babesia divergens; for Selective index HFF: EC50 HFF / IC50 B. divergens; for Selective index MDBK: EC50 MDBK / IC50 B. divergens; for Selective index NIH/3T3: EC50 NIH/3T3 / IC50 B. divergens
Procedure: (§1) Texas strain of B. bovis and Argentina strain of B. bigemina were grown using bovine red blood cells (RBCs, collected from cattle farm of Obihiro University of Agriculture and Veterinary Medicine and stored at 4°C) in medium 199 (M199; Sigma-Aldrich, Tokyo, Japan) supplemented with 40% bovine serum, while RPMI 1640 medium (Sigma-Aldrich, Tokyo, Japan) was used for B. divergens (German strain) cultivation. The United States Department of Agriculture (USDA) strain of T. equi was grown in equine RBCs (collected from horse farm of Obihiro University of Agriculture and Veterinary Medicine and stored at 4°C) in M199 supplemented with 40% equine serum, and hypoxanthine (MP Biomedicals, Santa Ana, CA, USA) at a final concentration of 13.6 μg/ml was used as a vital supplement, while GIT medium was used for B. caballi (USDA strain) cultivation. Sixty μg/ml of streptomycin, 0.15 μg/ml of amphotericin B, and 60 U/ml of penicillin G (Sigma-Aldrich, Tokyo, Japan) were added to all media to prevent fungal and bacterial contamination. All parasite cultures were maintained for a long time in a microaerophilic stationary-phase culture system.
(§2) The inhibition assay was conducted according to the previously described protocol. Briefly, different concentrations of CRY, DA, CF, and AQ were added in triplicate in 96-well plates with 1% parasitemia and 2.5% HCT for B. bovis and B. bigemina and 5% HCT for B. divergens, B. caballi, and T. equi. The plates were incubated in a humidified incubator with 5% CO2, 5% O2, and 90% N2 for 96 h without changing the media. After 96 h, 100 μl of lysis buffer containing 2 × SG1 was directly added to each well and the plates were then wrapped in aluminum foil for protection from direct light and incubated for 6 h at room temperature. Afterward, the fluorescence was measured using a fluorescence spectrophotometer (Fluoroskan Ascent, Thermo Fisher Scientific, USA) at 485 nm excitation and 518 nm emission wavelengths. The relative fluorescence value was set to percentages after subtracting the mean values of the negative control. The experiment was repeated thrice.
(§3) The IC50 values of CRY, DA, CF, and AQ were determined using the nonlinear regression curve fit in GraphPad Prism (GraphPad Software Inc., San Diego, CA, USA). Combination index (CI) values for the drug combination were calculated using CompuSyn software, and the degree of synergism was determined as the weighted average of CI values using a formula [(1 x IC50) + (2 x IC75) + (3 x IC90) + (4 x IC95)]/10 [30]. The differences in parasitemia and hematology profiles in the B. microti–infected mice were analyzed using an independent Student’s t-test and one-way ANOVA test using GraphPad Prism version 5.0 for Windows (GraphPad Software Inc., San Diego, CA, USA). A P-value < 0.05 was considered statistically significant.

T. equi = experiment: Growth inhibitory fluorescence assay in vitro, T. equi; format: cell-based, Theileria equi; settings: for Selective index HFF: EC50 HFF / IC50 T. equi; for Selective index MDBK: EC50 MDBK / IC50 T. equi; for Selective index NIH/3T3: EC50 NIH/3T3 / IC50 T. equi; for IC50: Theileria equi, T. equi in vitro culture, fluorescence assay, 96 h
Procedure: as §1, §2, §3

B. bovis = experiment: Growth inhibitory fluorescence assay in vitro, B. bovis; format: cell-based, Babesia bovis; settings: for IC50: Babesia bovis, in Bos taurus, B. bovis in vitro culture, fluorescence assay, 96 h; for Selective index HFF: EC50 HFF / IC50 B. bovis; for Selective index MDBK: EC50 MDBK / IC50 B. bovis
Procedure: as §1, §2, §3

B. microti = experiment: Chemotherapeutic effect against B. microti in mice (parasitemia); format: in vivo, Babesia microti; settings: for day p.i. on which parasitemia was undetectable by microscopy / peak parasitemia level: BALB/c mice; for peak parasitemia level: 5 days, day 10
Procedure: Rodent B. microti (Munich strain) was recovered from -80°C stock and injected intraperitoneally (i.p.) in two 8-week-old female BALB/c mice purchased from CLEA Japan (Clea Japan, Tokyo, Japan). The mice were euthanized using an anesthesia system containing isoflurane after parasitemia reached approximately 30% and the blood was collected by cardiac puncture to conduct the in vivo studies.
(§4) The promising effect of CRY in vitro encouraged us to evaluate its in vivo effects against B. microti in mice. The assay was conducted in accordance with the previously described protocol. In two separate trials, 35 female 8-week-old BALB/c mice, housed under a pathogen-free environment with controlled humidity, temperature (22°C) and a 12 h light/ dark cycle were caged in seven groups, each group consisting of five mice. Six groups were i.p. injected with 0.5 ml of inoculum (1×10^7 B. microti iRBCs), while the seventh group was left uninfected and untreated to act as a negative control. When the average parasitemia in all infected mice reached approximately 1%, the 5-day drug treatment was initiated. The first and second groups were i.p. injected with 25 mg/kg body weight (BW) of DA and 5 mg/kg BW of CRY, respectively. The third group received 20 mg/kg BW of AQ orally, while the fourth and fifth groups were administered a combination of 2.5 mg/kg BW CRY + 12.5 mg/kg BW DA and 2.5 mg/kg BW CRY + 10 mg/kg AQ via a route similar to that of the single-drug treatment, respectively. The sixth group received 5% DMSO in physiological saline i.p. as a positive control. Parasitemia and hematology profiles (RBCs, hemoglobin (HGB), and HCT) were monitored every 2 and 4 days by microscopic examination and hematology analyzer (Celltac α MEK-6450, Nihon Kohden Corporation, Tokyo, Japan), respectively. On day 49, all mice were euthanized using an anesthesia system containing isoflurane and the blood was collected by cardiac puncture for PCR detection of the parasites.

[1] = system: B. microti small-subunit rRNA (ss-rRNA) gene; experiment: Nested PCR detection of B. microti DNA in blood of treated mice; format: in vivo, Babesia microti
Procedure: as §4
The nested PCR (nPCR) that targeted the B. microti small-subunit rRNA (ss-rRNA) gene was performed in accordance with the previously described protocol and the genomic DNA was extracted from blood samples collected from all mice groups on day 49 post-infection (p.i.) using a QIAamp DNA Blood Mini Kit (Qiagen, Tokyo, Japan). PCR cycling conditions were performed as previously described and the bands with an expected size of 154 bp were considered positive.

[2] = B. divergens in vitro culture, fluorescence assay, 96 h, read-out: IC50

| SMILES | IC50 (B. divergens; [2]) [nM] | Selective index HFF (B. divergens) | Selective index MDBK (B. divergens) | Selective index NIH/3T3 (B. divergens) | Selective index HFF (T. equi) | Selective index MDBK (T. equi) | Selective index NIH/3T3 (T. equi) | IC50 (T. equi) [nM] | IC50 (B. bovis) [nM] | Selective index HFF (B. bovis) | Selective index MDBK (B. bovis) | further results |
| --- | --- | --- | --- | --- | --- | --- | --- | --- | --- | --- | --- | --- |
| Cn1c2c3ccccc3nc-2cc2ccccc21 [CRY, Cryptolepine hydrate] | 790 ± 0.32 | ˃ 126.9 | 109.71 | 120.62 | ˃ 136.9 | 118.73 | 130.54 | 730 ± 0.025 | 1740 ± 0.37 | ˃ 57.5 | 49.81 | concentration at which in vitro growth was significantly inhibited (B. divergens; B. divergens, t-test P = 0.003): 0.078 µM; IC50 (B. divergens; B. divergens, fluorescence assay after 96 h, three trials, read-out: IC50 (Fig 1)): 788 ± 320 nM; concentration at which in vitro growth was significantly inhibited (T. equi; T. equi, t-test P = 0.02): 0.078 µM; concentration at which in vitro growth was significantly inhibited (B. bovis; B. bovis, t-test P = 0.005): 0.15 µM; day p.i. on which parasitemia was undetectable by microscopy (B. microti; 5 mg/kg CRY i.p.): 28 days; peak parasitemia level (B. microti; 5 mg/kg CRY i.p., DMSO control 62.6% on day 8): 12.9%; growth of B. microti in mice (B. microti; CRY 5 mg/kg): effectively inhibited; parasite DNA in blood (nPCR) ([1]; day 49, 5 mg/kg CRY): still detected |
| O=C1C(O)=C([C@H]2CC[C@H](c3ccc(Cl)cc3)CC2)C(=O)c2ccccc21 [AQ, atovaquone] | 38 ± 0.002 | ˃ 2631.6 | ˃ 2631.6 | ˃ 2631.6 | ˃ 1052.6 | ˃ 1052.6 | ˃ 1052.6 | 95 ± 0.065 | 39 ± 0.002 | ˃ 2564.1 | ˃ 2564.1 | Selective index NIH/3T3 (B. bovis; EC50 NIH/3T3 / IC50 B. bovis): ˃ 2564.1; day p.i. on which parasitemia was undetectable by microscopy (B. microti; 20 mg/kg AQ oral): 18 days; peak parasitemia level (B. microti; 20 mg/kg AQ oral): 9%; parasite DNA in blood (nPCR) ([1]; day 49, 20 mg/kg AQ): not detected |
